Assay results published in patent US11883821B2, “Fluidic device for the detection, capture, or removal of a disease material” (Vanderbilt University, priority 2016, dated 2024).

Experiments:
[1] = system: Acinetobacter baumannii 'Patient 2'; experiment: Colistin MIC by standard agar dilution; assay type: cell-based; conditions: colistin-resistant isolate
Method: Bacterial cultures (i.e., Acinetobacter baumannii ATCC17978, Colistin-resistant Acinetobacter baumannii 19606R^41. Colistin-resistant Acinetobacter baumannii-Patient 2′. Klebsiella pneumoniae ATCC700603. Bacillus subtilis 1A578 (Bacillus Genetic Stock Center), Staphylococcus aureus ATCC29213) were plated on LB agar (Sigma-Aldrich, Lot #SLBR1403V) and grown overnight at 37° C. Single colonies of each strain were then inoculated in LB broth (IX) (Gibco, Lot #1803272) and grown at 37° C. for 18 hours shaking at 150 rpm. Cell concentrations were measured with OD595 spectrometry (Infinite F500. Tecan).
Colistin minimum inhibitory concentrations (MIC) of bacterial strains were confirmed by standard agar dilution methods. Results were interpreted according to the Clinical and Laboratory Standards Institute susceptibility breakpoints.

red blood cell = assay type: cell-based, human
Method: This process was repeated for the PEGylated device. Red blood cell lysis was then analyzed to determine release of free hemoglobin in plasma. Plasma hemoglobin was measured by according to well-established protocols. Following passage through the device, the blood samples were centrifuged (500×g) and the supernatant was spectrophotometrically analyzed for hemoglobin release using a plate-reader (Tecan, Infinite M1000 Pro) at 451 nm in order to determine percent hemolysis relative to the Triton-X positive control. Triton X-100 (Sigma-Aldrich) was diluted in diH2O to result in a 20 v/v % Triton-X detergent concentration, which served as the positive control. The negative control used was EDTA-anticoagulated whole, human blood that was not flowed through a double spiral microfluidic device (i.e. untreated). Percent of hemoglobin release was calculated according to the following equation: Hemoglobin release (%)=[(Sample451nm−Negative control451nm=)/(Positive control451nm−Negative control451nm)]×100%. Complete blood counts of each sample (i.e. untreated, colistinated device, PEGylated device) were performed by the Vanderbilt University Translational Pathology Shared Resource Core.

Row | Substance | Colistin MIC [1] [mg/L] | Hemolysis (%) (red blood cell)
1 | Colistin | >256 | 
2 | Triton X-100 [Positive control (20 v/v % Triton-X)] |  | 100% ± 3.08%
